Data as given in US10604476B2, “Fluorinated amide derivatives and their uses as therapeutic agents” (Trillium Therapeutics Inc., priority 2015, dated 2020).

Legend:
gross motor function [1] = experiment: Fixed speed rotorod, rat (gross motor function); details: Sprague-Dawley, in vivo, po
Experimental: On the test day following a defined drug pretreatment period, rats received a maximal electroshock (150 mA, 0.2 s duration, 60 Hz) via corneal electrodes. Protection was defined as absence of a full tonic seizure within 10 s of stimulus delivery. Twenty minutes before the MES procedure, the animals were tested on a fixed speed rotorod (best score from 3 trials at 8 r.p.m, trial duration=60 s) to give an early assessment of drug effect on gross motor function.

gross motor function [2] = experiment: Rotorod, mouse (Table 8); details: in vivo, po, Table 8, mouse
6 Hz psychomotor seizure = experiment: Mouse 6 Hz model; format: in vivo; details: mice, ip, 0.5 hour, 32 mA
Experimental: Male, Sprague-Dawley rats and CD-1 mice were used for all studies. All animals were allowed ad-lib access to food and water except during experiment. Animals were housed within an animal vivarium maintained under a 12 h light:dark cycle (lights on: 07:00 h), and all experiments were conducted in the animals light phase. For all experiments, animals were habituated to the vivarium for a minimum of 72 h before experimentation. The experimental procedures used in the present investigation were conducted under the Association for Assessment and Accreditation of Laboratory Animal Care (AAALAC) and the Canadian Council on Animal Care (CCAC) guidelines. All compounds were sonicated in 5% Tween 80® in saline or methylcellulose 0.5% (wgt/vol), using MC and sterile water and injected in a dose volume of 5 ml/kg or 10 ml/kg (rat), and 10 ml/kg (mouse). Drugs were administered by either the oral, intraperitoneal or intravenous route. […] Preliminary experiments established that these stimulus parameters elicited a psychomotor seizure, defined as the expression of at least one of the following behaviors: stun/immobility, forelimb clonus, straub tail, vibrissae tremor, lateral head movement in >95% of control animals. Protection was defined as complete absence of all the above behaviors within 20 s of stimulus delivery. The effective dose of compound necessary to protect against psychomotor seizures to 50% of controls (i.e. ED50) was determined by curve fitting program (Prism v.4.02).

[3] = tested on: maximal electroshock seizure; experiment: Maximal Electroshock Seizure (MES) rat model; format: in vivo; details: po, 0.5 hour
Experimental: Male, Sprague-Dawley rats and CD-1 mice were used for all studies. All animals were allowed ad-lib access to food and water except during experiment. Animals were housed within an animal vivarium maintained under a 12 h light:dark cycle (lights on: 07:00 h), and all experiments were conducted in the animals light phase. For all experiments, animals were habituated to the vivarium for a minimum of 72 h before experimentation. The experimental procedures used in the present investigation were conducted under the Association for Assessment and Accreditation of Laboratory Animal Care (AAALAC) and the Canadian Council on Animal Care (CCAC) guidelines. All compounds were sonicated in 5% Tween 80® in saline or methylcellulose 0.5% (wgt/vol), using MC and sterile water and injected in a dose volume of 5 ml/kg or 10 ml/kg (rat), and 10 ml/kg (mouse). Drugs were administered by either the oral, intraperitoneal or intravenous route. Male Sprague-Dawley rats of body weight 80-100 g were used for these studies. Each experiment was conducted over 3 consecutive days. On day 1 and 2, each rat received a single electrical stimulus (150 mA, 0.2 s duration, 60 Hz) via corneal electrodes moistened with saline (Shock stimulator type 221: Harvard apparatus). […] Typically this reflected approximately 70-90% of the initial group. […] On the test day following a defined drug pretreatment period, rats received a maximal electroshock (150 mA, 0.2 s duration, 60 Hz) via corneal electrodes. Protection was defined as absence of a full tonic seizure within 10 s of stimulus delivery. Twenty minutes before the MES procedure, the animals were tested on a fixed speed rotorod (best score from 3 trials at 8 r.p.m, trial duration=60 s) to give an early assessment of drug effect on gross motor function.

[4] = tested on: fully kindled (stage 5) seizures, amygdala kindled rat; experiment: Amygdala kindled rat model; format: in vivo; details: <60 mg/kg i.p.
Excerpt: Amygdala kindling model is an animal model for complex partial seizures, which is the most common type of epilepsy in adults and is often drug resistant.

ED50 at 0.5 hour (gross motor function [1]) [mg/kg] | ED50 at 0.5 hour (gross motor function [2]) [mg/kg] | Compound | ED50 (6 Hz psychomotor seizure) [mg/kg] | ED50 [3] [mg/kg] | suppression of fully kindled (stage 5) seizures compared to vehicle controls [4]
> 500 | > 160 | CN(CC(N)=O)c1cc(C(F)(F)F)cc(C(F)(F)F)c1 [I(A), 2-[(3,5-Bis-trifluoromethyl-phenyl)-methyl-amino]-acetamide] | 62.5 ± 1 | 48 ± 1.1 | 
 |  | NC(=O)C(F)(F)Oc1cc(Cl)cc(C(F)(F)F)c1 [Compound I(E), 2-[3-chloro-5-(trifluoromethyl)-phenoxy]-2,2-difluoro-acetamide] |  |  | dose related suppression
